Key:
[1] = test system: lung fibroblast cells derived from control rats; experiment: Survival of lung fibroblast cells from control rats with drugs; type: cell-based, rat; conditions: control rat cells, drugs added at day 2, geneticin 400 μg/ml, 5FC 100 μg/ml
Experimental: (§1) Fibroblast cultures derived from lung of adult CD2/neo^r, TG/TK/neo^r and control animals were produced and expanded by routine methods (Freshney (1987), Alan R. Liss, New York). Twenty-four hours after plating, geneticin (400 μg/ml) was added to cultures originating from both types of transgenic rats and from control rats, and replaced every three days with fresh medium. When required, cells were subcultured (1:3) to prevent them becoming confluent, again by basic culture methods (Freshney 1987). Cell counts were made manually in 20 fields chosen randomly and the values at each time point, after allowing for changes due to subculturing, were aggregated. […] In the absence of added geneticin, no change in cell survival from either of the transgenic animals was observed.
(§2) The effects of 5-fluorocytosine (5FC) were also determined. 5-fluorocytosine at a concentration of 100 μg/ml had no effect on fibroblast cells derived from control animals or from the TG/TK/neo^r transgenic. In the cells derived from the CD2/neo^r transgenic animal, however, 94% of the originally-plated cells died, or were non-functional (as determined by their failure to exclude trypan blue) after 10 days culture in the presence of 5FC (Table 2).
(§3) Drugs were added at day 2 in culture. Values are related to the number of cells found in control cultures without drug additions at various times after plating, and allowing for dilutions resulting from passaging. Figures are the means of three separate determinations, the standard errors all being less than 15% of the mean.

[2] = test system: lung fibroblast cells derived from TG/TK/neo^r transgenic rats; experiment: Survival of lung fibroblast cells from TG/TK/neo^r transgenic rats with drugs; type: cell-based, rat; conditions: TG/TK/neo^r rat cells, drugs added at day 2, geneticin 400 μg/ml, 5FC 100 μg/ml
Experimental: as §1, §2, §3

[3] = test system: lung fibroblast cells derived from CD2/neo^r transgenic rats; experiment: Survival of lung fibroblast cells from CD2/neo^r transgenic rats with drugs; type: cell-based, rat; conditions: CD2/neo^r rat cells, drugs added at day 2, geneticin 400 μg/ml, 5FC 100 μg/ml
Experimental: as §1, §2, §3

[4] = test system: thyroid cells derived from control rats; experiment: Survival of thyroid cells from control rats with drugs; type: cell-based, rat; conditions: control rat cells, drugs added at day 2, geneticin 400 μg/ml, ACG 10 μg/ml
Experimental: (§4) Thyroid cultures derived from the thyroid gland of adult CD2/neo^r, TG/TK/neo^r and control animals were produced by routine methods (Freshney, 1987). Twenty-four hours after plating, geneticin (400 μg/ml) was added to cultures originating from both types of transgenic and the control rats, and replaced every three days with fresh medium. When required, cells were subcultured (1:2) to prevent their becoming confluent. Cell counts were made manually in 20 fields chosen randomly, and the values at each time point, after allowing for changes due to subculturing, were aggregated (Table 3). […] Ten days later, cell counts were again made of 20 fields chosen at random. […] The results were as expected in view of the specific and non-specific expression of the positive and negative selection markers, in the TG/TK/neo^r and CD2/neo^r transgenics, respectively.
as §3, with “allow” for “allowing”

[5] = test system: thyroid cells derived from TG/TK/neo^r transgenic rats; experiment: Survival of thyroid cells from TG/TK/neo^r transgenic rats with drugs; type: cell-based, rat; conditions: TG/TK/neo^r rat cells, drugs added at day 2, geneticin 400 μg/ml, ACG 10 μg/ml
Experimental: as §4
as §3, with “allow” for “allowing”

[6] = test system: thyroid cells derived from CD2/neo^r transgenic rats; experiment: Survival of thyroid cells from CD2/neo^r transgenic rats with drugs; type: cell-based; conditions: CD2/neo^r rat cells, drugs added at day 2, geneticin 400 μg/ml, ACG 10 μg/ml
Experimental: as §4
as §3, with “allow” for “allowing”

[7] = test system: spinal cord cells derived from the CD2-neo^r transgenic rat; experiment: Survival and development of spinal cord cells from the CD2-neo^r transgenic rat under geneticin; type: cell-based; conditions: geneticin 1 mg/ml; 60 days in vitro
Experimental: Cultures of spinal cord cells derived from the CD2-neo^r transgenic rat were grown in small flasks, using previously established methods (Foster et al., (1990) Eur. J. Neurosci. 3, 32-39). At the beginning of the experimental period, in the region of 100 yeast spores, and unknown amounts of other common laboratory microbiological contaminants, were introduced into the flask. At the same time geneticin (1 mg/ml) was added. Thereafter, all manipulations of the medium and additions to the flask were conducted outside the sterile environment of the laminar flow cabinet.

CN[C@@H]1[C@@H](O)[C@@H](O[C@@H]2[C@@H](O)[C@H](O[C@H]3O[C@H]([C@@H](C)O)[C@@H](O)[C@H](O)[C@H]3N)[C@@H](N)C[C@H]2N)OC[C@]1(C)O [geneticin]
Survival of lung fibroblast cells (related to number of cells in control cultures without drug) ([1]; day 1 in culture): 99 | Survival of lung fibroblast cells (related to number of cells in control cultures without drug) ([1]; day 3 in culture): 101 | Survival of lung fibroblast cells (related to number of cells in control cultures without drug) ([1]; day 5 in culture): 85 | Survival of lung fibroblast cells (related to number of cells in control cultures without drug) ([1]; day 7 in culture): 23 | Survival of lung fibroblast cells (related to number of cells in control cultures without drug) ([1]; day 9 in culture): 5 | Survival of lung fibroblast cells (related to number of cells in control cultures without drug) ([1]; day 11 in culture): 2 | Survival of lung fibroblast cells (related to number of cells in control cultures without drug) ([2]; day 1 in culture): 97 | Survival of lung fibroblast cells (related to number of cells in control cultures without drug) ([2]; day 3 in culture): 105 | Survival of lung fibroblast cells (related to number of cells in control cultures without drug) ([2]; day 5 in culture): 108 | Survival of lung fibroblast cells (related to number of cells in control cultures without drug) ([2]; day 7 in culture): 101 | Survival of lung fibroblast cells (related to number of cells in control cultures without drug) ([2]; day 9 in culture): 105 | Survival of lung fibroblast cells (related to number of cells in control cultures without drug) ([2]; day 11 in culture): 111 | Survival of lung fibroblast cells (related to number of cells in control cultures without drug) ([3]; day 1 in culture): 91 | Survival of lung fibroblast cells (related to number of cells in control cultures without drug) ([3]; day 3 in culture): 94 | Survival of lung fibroblast cells (related to number of cells in control cultures without drug) ([3]; day 5 in culture): 91 | Survival of lung fibroblast cells (related to number of cells in control cultures without drug) ([3]; day 7 in culture): 93 | Survival of lung fibroblast cells (related to number of cells in control cultures without drug) ([3]; day 9 in culture): 107 | Survival of lung fibroblast cells (related to number of cells in control cultures without drug) ([3]; day 11 in culture): 105 | Survival of thyroid cells (related to number of cells in control cultures without drug) ([4]; day 1 in culture): 95 | Survival of thyroid cells (related to number of cells in control cultures without drug) ([4]; day 3 in culture): 91 | Survival of thyroid cells (related to number of cells in control cultures without drug) ([4]; day 5 in culture): 85 | Survival of thyroid cells (related to number of cells in control cultures without drug) ([4]; day 7 in culture): 56 | Survival of thyroid cells (related to number of cells in control cultures without drug) ([4]; day 9 in culture): 9 | Survival of thyroid cells (related to number of cells in control cultures without drug) ([4]; day 11 in culture): 4 | Survival of thyroid cells (related to number of cells in control cultures without drug) ([5]; day 1 in culture): 104 | Survival of thyroid cells (related to number of cells in control cultures without drug) ([5]; day 3 in culture): 105 | Survival of thyroid cells (related to number of cells in control cultures without drug) ([5]; day 5 in culture): 98 | Survival of thyroid cells (related to number of cells in control cultures without drug) ([5]; day 7 in culture): 88 | Survival of thyroid cells (related to number of cells in control cultures without drug) ([5]; day 9 in culture): 93 | Survival of thyroid cells (related to number of cells in control cultures without drug) ([5]; day 11 in culture): 98 | Survival of thyroid cells (related to number of cells in control cultures without drug) ([6]; day 1 in culture): 91 | Survival of thyroid cells (related to number of cells in control cultures without drug) ([6]; day 3 in culture): 94 | Survival of thyroid cells (related to number of cells in control cultures without drug) ([6]; day 5 in culture): 91 | Survival of thyroid cells (related to number of cells in control cultures without drug) ([6]; day 7 in culture): 93 | Survival of thyroid cells (related to number of cells in control cultures without drug) ([6]; day 9 in culture): 107 | Survival of thyroid cells (related to number of cells in control cultures without drug) ([6]; day 11 in culture): 105 | Survival and development of the neural cells compared to uninfected control cells grown without geneticin [7]: appeared unimpaired
